# Assay results from patent publication US20100255020A1, “METHOD FOR INDUCING CYTOTOXIC T-CELLS, CYTOTOXIC T-CELL INDUCERS, AND PHARMACEUTICAL COMPOSITIONS AND VACCINES EMPLOYING THEM” (NEC CORPORATION, priority 2007, published 2010).
# Where no end group is shown, it is not given here.
# Tests used:
# [1] = tested on: prostate-specific antigen (PSA); test: Prostate tumor marker PSA during W10 peptide immunotherapy; type: in vivo, human
# Experimental: After the gradual increase the dose was fixed to 3 mg of W10 peptide+Wc and immunotherapy was continued. […] The day when 1 mg of W10 peptide on its own was first administered was presented as day 0. Arrows with dotted line indicates the period when 3 mg of W10 without Wc was injected for safety test (W10). The period where Wc was further added to W10 is also indicated with arrows with solid line (W10+Wc). […] Therefore, osteolytic lesions were measured as the size of tumors. […] Around May 2008, PSA gradually started to increase again, and pain started in the right femur. From the end of July 2008, a taxotere+Predonin therapy was started. W10+Wc immunotherapy was continued along with chemotherapy.
# Immunotherapy was started with 3 mg W10 peptide while monitoring safety, then dose escalation was put forward with W10 peptide 1 mg+Wc, followed by 3 mg of W10 peptide+Wc. Eventually, the dose was fixed at this level and weekly immunization was continued. […] The day the immunization was started with 3 mg of W10 without Wc was set as day 0. […] For about half a year, PSA was stable at less than 0.1 (FIG. 14 a). […] When the immunotherapy was resumed, PSA decreased. After this incident, PSA started to show gradual increase. […] The size of a pubic bone metastatic tumor has been maintained within SD for 37 weeks on the RECIST standard so far (FIG. 14 b). […]
# [2] = tested on: IFN-γ-producing cells in peripheral blood mononuclear cells; test: ELISPOT of patients' PBMCs before and after W10 peptide immunization; type: cell-based, human
# Experimental: In order to compare the cytotoxicity of peripheral blood mononuclear cells between that before administration of 5×10̂8 cells of whole-cell pertussis vaccine and 3 mg of W10 peptide to that after administering it three times, peripheral blood mononuclear cells were cultured with the immunizing peptide under conditions described later, and the number of cells that produced IFN-γ in a peptide-dependent manner were counted. The cells used for the ELISPOT assay are also described later.
# The results are shown in FIG. 6 (response of PBMC of patients having HLA-A*2402), FIG. 7 (response of patients having HLA-A*0201), and FIG. 8 (response of patients having HLA-A*0206). The abscissa denotes the peptide that was bound to antigen presenting cells (in the figures, referred to as APCs (antigen presenting cells)), and the ordinate denotes the number of INF-γ-producing cells per 1×10̂4 cells. The response of peripheral blood mononuclear cells one week after three-time immunizations is shown with closed bars, and the response of peripheral blood mononuclear cells collected immediately before immunization is shown with open bars. […]
# Peripheral blood mononuclear cells (PBMC) were stimulated in vitro once a week for a total of three times and then, the number of cells that produced IFN-γ in response to the antigen peptide were counted. […]
# [3] = tested on: HLA-A*2402 positive cell lines that express WT1 naturally (KAZZ, KCL22, KH88, MEG01); test: Reactivity of WT1 peptide-specific cell lines toward tumor cells (IFN-γ ELISPOT); type: cell-based, human; details: cell lines established from HLA-A*2402 positive patients, FIG. 5
# Text: Reactions of cell lines established from different patients are arranged in a bar graph.
# [4] = tested on: peptide-loaded target cells (C1R-A24, RA24, T2); test: 51Cr release assay of PBMC killing activity against peptide-loaded target cells; type: cell-based, human
# Experimental: Target cells were labeled with ^51Cr and loaded with HLA-binding peptide of interest. 5,000 or 10,000 cells/well of target cells were placed in 96-well U-bottom plate, and then, PBMCs having been stimulated twice in vitro were added thereto as a responder. Cells were incubated at 37° C. for 5 hours and ^51Cr released from the damaged cells during the incubation was measured, and % specific lysis was calculated. As target cells C1R-A24 or RA24 cells were used as a target when reactivity to HLA-A*2402 binding peptides were examined, and T2 cells were used as a target and incubation was carried out for 2 hours after addition of responder cells. Percent specific lysis was calculated as follows. % specific lysis=(test release-spontaneous release)/(total release-spontaneous release)×100.
# [5] = human, in vivo
# Text: Patients were monitored for adverse events after the peptide administration in accordance with evaluation criteria for an adverse event, CTCAE (Common Terminology Criteria for Adverse Events v3.0 by JCOG/JSCO-Oct. 27, 2004).
# Adverse event was monitored up to 1 week after the last immunization.
# Criteria for determining an adverse event is in accordance with CTCAE (Common Terminology Criteria for Adverse Events v3.0) by JCOG/JSCO-Oct. 27, 2004; when the grade was 2/3 the test therapy was suspended, and when the grade was 4 or greater, the test therapy was terminated regardless of causal relationship to the test therapy.
sequence,measurement,setting,value
ALLPAVPSL [W10],PSA,"[1]; patient KB07-003, prostate cancer, stable for about half a year",less than 0.1
same,PSA after starting immunotherapy,"[1]; patient KB07-005, prostate cancer",around 0.04
same,Number of W10-reactive IFN-γ-producing T-cells,"[2]; patient KB07-006, after 1 mg W10 peptide for 3 weeks",increased
same,Increase of cells producing IFN-γ in response to W10 peptide after immunization,"[2]; patients with HLA-A*2402, HLA-A*0201 or HLA-A*0206, 3 mg W10 + Wc x3",often observed
same,Reactivity of peptide-dependent cell line toward WT1-expressing cell lines compared with C1R-A24,[3],tends to be higher although differences are small
same,Peptide-reactive cytolytic cells in PBMCs of patients,"[4]; HLA-A*0201 binding peptides, T2 targets",contain cytolytic cells that recognize
same,Peptide-reactive cytolytic cells in PBMCs of patients,"[4]; HLA-A*2402 binding peptides, FIG. 9a and b",cytolytic cells include those reactive
same,Adverse event due to peptide immunotherapy,[5],"no adverse event due to peptide immunotherapy was observed, except for an erythema and mild swelling at the site of immunization"
same,Creatinine (Cre) adverse event,[5],Grade 2 increase of Cre
